Here are results for 41 compounds from patent US10717966B2, “Stem cell-derived hepatocytes in co-culture and uses thereof” (Colorado State University Research Foundation, priority 2014, dated 2020).

“Also recorded” adds a separate entry of the source. Where a name gives a salt, the structure may show the parent alone. Read-outs that look alike come from different tables or passages of the source.

One may read the Cmax as the peak of the concentration-time curve.

The conditions of data set [1]: cited from earlier work; for DILI Cat (DILI category): human, in vivo; for DILI Sev (DILI severity score from the LTKB of the FDA): negative number: withdrawn from the market, higher positive numbers, greater DILI concern.
The subject of data set [2] is iMPCCs. Nature of the data set: Drug-drug interaction: acetaminophen with BSO in iMPCCs. It is filed as cell-based, human. The settings on record: APAP 25·Cmax and 50·Cmax, BSO 200 μM.
Data set [3] deals with primary hepatocytes (HUM4011, Triangle Research Labs). As to conditions: human.
Data set [4] deals with iMPCCs (iHep micropatterned co-cultures). The settings on record: human.
The subject of data set [5] is primary hepatocyte sandwich culture. The settings on record: human, cited from earlier work.
For data set [6], the system named is iCCs (confluent monolayer cultures of iHeps). The settings on record: human; for Toxicity call in iCCs: 6 days.
The subject of data set [7] is iMPCCs. In words: 8-day drug toxicity study in iMPCCs (albumin and urea). The settings on record: 8 days, multiple doses.
In data set [8] the test system is primary human hepatocytes in MPCCs. The settings on record: cited from earlier work.
For data set [9] the following is noted: total human plasma concentration; cited from earlier work.
Data set [10] relates to iMPCCs (iHep micropatterned co-cultures). In words: Drug toxicity screening in iMPCCs (albumin, ATP, urea; binary decision and TC50). As to conditions: interpolated concentration at which activity decreases by 50% of DMSO-only controls.
Another data set deals with CYP1A2. Nature of the data set: CYP1A2 induction in iMPCCs (7-ethoxyresorufin O-dealkylation). It is filed as cell-based, human.
Data set [11] concerns CYP2C9 and CYP3A4. In words: Drug-mediated CYP enzyme induction in iCCs. As to conditions: rifampicin 25 μM, phenobarbital 1 mM, 4 days.
For data set [12], the system named is CYP2C9 and CYP3A4. As to conditions: human.
Wherever DILI Cat (DILI category) is given: key: P1: DILI type 1, dose dependent (toxic); P2: DILI type 2, idiosyncratic (toxic); N1: not known to cause liver injury (nontoxic); N2: sporadic cases (<10) of liver injury reported but generally considered safe drug to use by doctors (nontoxic); O1: hepatotoxic in animals untested in humans (toxic); O2: elevated liver enzymes observed in humans but does not lead to frank liver toxicity (nontoxic).

In the case of `C#CC1(O)CC[C@H]2[C@@H]3CCC4=CC(=O)CC[C@@H]4[C@H]3CC[C@@]21CC` (mixture of isomers) [Norgestrel], the “DILI Cat (DILI category)” value in data set [1] is given as “P2”. Take `CC(=O)Nc1ccc(O)cc1` [Acetaminophen]: in data set [1], the “DILI Cat (DILI category)” value is listed as “P2”. The “Toxicity of APAP when combined with BSO” value in the data set with iMPCCs [2] is reported as “substantial increase in toxicity”. As to `CC(=O)Nc1nnc(S(N)(=O)=O)s1` [Acetazolamide], the “Toxicity call in another donor of primary hepatocytes” value (“Toxicity call in another donor” below) in data set [3] is given as “false negative”. For `CC(=O)Oc1ccccc1C(=O)O` [Aspirin], in data set [4] (6 days), the “Model predictions iMPCC (binary decision of toxicity)” value is recorded as “−”. Further, the “DILI Cat (DILI category)” value in data set [1] is on record as “O2”. Regarding `CCc1oc2ccccc2c1C(=O)c1cc(Br)c(O)c(Br)c1` [Benzbromarone], the “DILI Cat (DILI category)” value in data set [1] is given as “P1”. For `CNCCc1ccccn1.Cl.Cl` [Betahistine 2HCl], the “DILI Cat (DILI category)” value in data set [1] is on record as “P2”. In the case of `O=C1CC2(CCCC2)CC(=O)N1CCCCN1CCN(c2ncccn2)CC1` [Buspirone], in data set [1], the “DILI Cat (DILI category)” value is “N1”. With `C[C@H](CS)C(=O)N1CCC[C@H]1C(=O)O` [Captopril], in data set [1], the “DILI Cat (DILI category)” value is listed as “P2” and the “DILI Sev (DILI severity score from the LTKB of the FDA)” value (“DILI Sev” below) is 7.

For the compound `CCCCCCCCCCCCCCCC(=O)OC[C@@H](NC(=O)C(Cl)Cl)[C@H](O)c1ccc([N+](=O)[O-])cc1` [Chloramphenicol palmitate], the “DILI Cat (DILI category)” value in data set [1] is recorded as “P2”. As to `O=C(O)c1cn(C2CC2)c2cc(N3CCNCC3)c(F)cc2c1=O` [Ciprofloxacin HCl], the “TC50 in iMPCCs, ATP” value in data set [4] (6 days) was 804.2 µM. For the compound `CCN(CC)CCOc1ccc(C(=C(Cl)c2ccccc2)c2ccccc2)cc1` [Clomiphene citrate], the “DILI Cat (DILI category)” value in [1] is given as “P2”.

On to `O=P1(N(CCCl)CCCl)NCCCO1` (centres unmarked) [Cyclophosphamide], for which the “Model predictions Sand (binary decision in sandwich cultures)” value (from here on “Model predictions Sand”) in data set [5] (primary hepatocyte sandwich culture) is “−”.

For `CC(=O)O[C@]1(C(C)=O)CC[C@H]2[C@@H]3C=C(Cl)C4=CC(=O)[C@@H]5C[C@@H]5[C@]4(C)[C@H]3CC[C@@]21C` [Cyproterone acetate], in [4] (6 days), the “Toxicity call in iMPCCs / iHeps” value is given as “toxic”. Further, the “DILI Cat (DILI category)” value in data set [1] is listed as “O1”. Further, the “Toxicity call in iCCs” value in [6] was “non-toxic”. As to `C#C[C@]1(O)CC[C@H]2[C@@H]3CCC4=Cc5oncc5C[C@]4(C)[C@H]3CC[C@@]21C` [Danazol], in data set [1], the “DILI Cat (DILI category)” value is given as “P1” and the “DILI Sev” value is on record as 8. As to `Nc1ccc(S(=O)(=O)c2ccc(N)cc2)cc1` [Dapsone], the “DILI Cat (DILI category)” value in [1] is on record as “P1”. The “Toxicity call in another donor” value in data set [3] was “false negative”.

Turning to `C[C@@H]1C[C@H]2[C@@H]3CCC4=CC(=O)C=C[C@]4(C)[C@@]3(F)[C@@H](O)C[C@]2(C)[C@@]1(O)C(=O)CO` [Dexamethasone], the “Model predictions iMPCC (binary decision of toxicity)” value in data set [4] (6 days) is “−”. Also, in data set [1], the “DILI Cat (DILI category)” value is recorded as “N1”. Take `COc1ccc2c(c1)[C@]13CCCC[C@@H]1[C@H](C2)N(C)CC3` [Dextromethorphan HBr]: the “Model predictions ICC (binary decision of toxicity)” value in [6] is listed as “−”. The “Model predictions Sand” value in [5] was “−”. Further, the “Albumin and urea production after exposure” value in the data set on iMPCCs [7] is “minimally affected”. `O=C(O)Cc1ccccc1Nc1c(Cl)cccc1Cl` [Diclofenac]: in [1], the “DILI Cat (DILI category)” value was “P2” and the “DILI Sev” value is on record as 7. Also, in data set [8], the “TC50 in MPCCs, Urea” value is 208.2 µM.

Consider `C[C@]12CC[C@@H]3c4ccc(O)cc4CC[C@H]3[C@@H]1CCC2=O` [Estrone], for which the “DILI Cat (DILI category)” value in data set [1] was “P2”. As to `CNCCC(Oc1ccc(C(F)(F)F)cc1)c1ccccc1` (centres unmarked) [Fluoxetine], in [1], the “DILI Cat (DILI category)” value is “N2” and the “DILI Sev” value is reported as 3. Also, the Cmax in [9] is 49 nM.

As for `CC(C(=O)O)c1ccc(-c2ccccc2)c(F)c1` (centres unmarked) [Flurbiprofen], the “Comparison of urea TC50 values, iHeps vs primary hepatocytes” value in data set [4] (6 days) is “higher TC50 in iHeps”. In addition, in data set [1], the “DILI Cat (DILI category)” value is “P2”. For the compound `NC(=O)NO` [Hydroxyurea], the “TC50 in iMPCCs, ATP” value in [4] (6 days) turned out to be 49358.3 µM. As for `CN(C)CCCN1c2ccccc2CCc2ccccc21` [Imipramine HCl], in data set [1], the “DILI Cat (DILI category)” value is reported as “P2”.

On to `NNC(=O)c1ccncc1` [Isoniazid], for which the “TC50 in iMPCCs, Albumin” value in data set [10] was determined as 6.6811 mM. Besides, the “Toxicity call in iMPCCs / iHeps” value in data set [4] (6 days) is given as “toxic”. Moreover, the “DILI Cat (DILI category)” value in data set [1] is given as “P1”. Also, the “Toxicity call in iCCs” value in [6] is “non-toxic”. For `O=C(O)/C=C\C(=O)O` [Maleic acid], the “Toxicity call in another donor” value in data set [3] is “borderline positive”.

`Cc1cccc(Nc2ccccc2C(=O)O)c1C` [Mefenamic acid]: in data set [4] (6 days), the “TC50 in iMPCCs, ATP” value turned out to be 2551.9 µM and the “TC50 in iMPCCs, Urea” value amounted to 572.2 µM. For the same compound, the “DILI Cat (DILI category)” value in data set [1] is “P2”.

On to `CNCCC=C1c2ccccc2CCc2ccccc21` [Nortriptyline HCl], for which the “DILI Cat (DILI category)” value in data set [1] is listed as “P2”. Take `CCOc1ccc(NC(C)=O)cc1` [Phenacetin]: in data set [6], the “Toxicity call in iCCs” value is recorded as “not identified as toxic”.

`CCCCC1C(=O)N(c2ccccc2)N(c2ccccc2)C1=O` [Phenylbutazone]: in data set [1], the “DILI Cat (DILI category)” value was “P2”. In addition, the “TC50 in MPCCs, ATP” value in data set [8] is 7.5867 mM. With `CN1C(C(=O)Nc2ccccn2)=C(O)c2ccccc2S1(=O)=O` [Piroxicam], in data set [4] (6 days), the “Toxicity call in iMPCCs / iHeps” value is given as “toxic”. Further, the “DILI Cat (DILI category)” value in [1] is given as “P2”. On to `CC(=O)[C@H]1CC[C@H]2[C@@H]3CCC4=CC(=O)CC[C@]4(C)[C@H]3CC[C@]12C` [Progesterone], for which, in data set [1], the “DILI Cat (DILI category)” value is “P2”. As for `NC(=O)c1cnccn1` [Pyrazinamide], the “Toxicity call in iMPCCs / iHeps” value in data set [4] (6 days) was “toxic”. Moreover, the “DILI Cat (DILI category)” value in [1] is given as “P2”. The “Toxicity call in iCCs” value in data set [6] is “non-toxic”. Regarding `C=C[C@H]1C[N@@]2CC[C@H]1C[C@H]2[C@H](O)c1ccnc2ccc(OC)cc12` [Quinine], in [4] (6 days), the “TC50 in iMPCCs, ATP” value turned out to be 182.2 µM. Besides, the “DILI Cat (DILI category)” value in data set [1] is given as “P2”. With `CN(CCOc1ccc(CC2SC(=O)NC2=O)cc1)c1ccccn1` (centres unmarked) [Rosiglitazone], the “DILI Cat (DILI category)” value in [1] is on record as “N2”. On to `O=c1n(CCCN2CCN(c3cccc(Cl)c3)CC2)nc2ccccn12` [Trazodone HCl], for which, in data set [4] (6 days), the “TC50 in iMPCCs, ATP” value is 351.5 µM. Further, the “DILI Cat (DILI category)” value in data set [1] is on record as “P2”.

Take `Cc1c(C)c2c(c(C)c1O)CCC(C)(COc1ccc(CC3SC(=O)NC3=O)cc1)O2` (centres unmarked) [Troglitazone]: the “DILI Cat (DILI category)” value in data set [1] is listed as “P1”. Turning to `CC(=O)CC(c1ccccc1)c1c(O)c2ccccc2oc1=O` (centres unmarked) [Warfarin], the “Model predictions ICC (binary decision of toxicity)” value in data set [6] was “−”. Moreover, the “Model predictions Sand” value in [5] is “−”. Regarding `CCN(CC)C(=O)/C(C#N)=C/c1cc(O)c(O)c([N+](=O)[O-])c1` [entacapone], in data set [4], the “Albumin secretions, time- and dose-dependent toxicity” value is “time- and dose-dependent toxicities”. `COc1ccc2[nH]c([S+]([O-])Cc3ncc(C)c(OC)c3C)nc2c1` (centres unmarked) [omeprazole]: the “CYP1A2 fold induction in iMPCCs as % of values in PHH-MPCCs” value in the data set on CYP1A2 is recorded as roughly 70%.

Turning to `CCC1(c2ccccc2)C(=O)NC(=O)NC1=O` [phenobarbital], the “Induction of CYP450 (3A4, 2C9) transcripts and functions in PHH-MPCCs” value in the data set on CYP450 (3A4, 2C9) was “induction”. Moreover, the “CYP induction response (functional activity) in iCCs” value with CYP2C9 and CYP3A4 [11] is “induced functional activity; also recorded: severely blunted”. Also, in the data set on CYP2C9 and CYP3A4 [12], the “Fold induction of CYP450 transcripts in iMPCCs relative to PHH-MPCCs” value is recorded as 60-130% and the “Induction in CYP450 functions in iMPCCs relative to PHH-MPCCs” value is reported as 44-79%.

Regarding `Cc1ccc(C(=O)c2cc(O)c(O)c([N+](=O)[O-])c2)cc1` [tolcapone], the “Albumin secretions, time- and dose-dependent toxicity” value in data set [4] is “time- and dose-dependent toxicities”.
